Experimental data: article doi:10.1101/2025.05.09.652710v1 (bioRxiv, 2025)

Assays:
[1] = biological target: TMPRSS2 (Homo sapiens, UniProt O15393, Q253D/R252D/R255K/S251D/S254D); test: Fluorogenic kinetic enzyme inhibitor assay, TMPRSS2; format: biochemical
[2] = biological target: T1, matriptase (Homo sapiens, UniProt Q9Y5Y6); test: Fluorogenic kinetic enzyme inhibitor assay, matriptase; format: biochemical
T1 sequence (Q9Y5Y6 615-855): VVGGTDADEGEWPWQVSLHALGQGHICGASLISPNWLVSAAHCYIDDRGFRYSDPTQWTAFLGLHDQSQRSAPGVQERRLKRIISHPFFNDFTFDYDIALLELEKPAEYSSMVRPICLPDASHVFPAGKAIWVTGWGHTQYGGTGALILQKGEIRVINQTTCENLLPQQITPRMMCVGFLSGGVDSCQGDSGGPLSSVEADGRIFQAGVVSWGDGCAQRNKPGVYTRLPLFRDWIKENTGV

[3] = biological target: hepsin (Homo sapiens, UniProt P05981); test: Fluorogenic kinetic enzyme inhibitor assay, hepsin; format: biochemical
Chain of hepsin (P05981 163-417 limits assumed): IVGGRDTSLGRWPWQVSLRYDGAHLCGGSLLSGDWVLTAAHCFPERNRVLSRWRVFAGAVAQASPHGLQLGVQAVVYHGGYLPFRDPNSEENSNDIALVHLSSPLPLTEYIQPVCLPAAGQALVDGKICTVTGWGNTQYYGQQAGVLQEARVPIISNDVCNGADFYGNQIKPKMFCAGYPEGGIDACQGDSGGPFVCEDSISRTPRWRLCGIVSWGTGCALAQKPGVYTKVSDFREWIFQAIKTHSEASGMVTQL
Chain of hepsin (P05981 45-162 partner limits assumed): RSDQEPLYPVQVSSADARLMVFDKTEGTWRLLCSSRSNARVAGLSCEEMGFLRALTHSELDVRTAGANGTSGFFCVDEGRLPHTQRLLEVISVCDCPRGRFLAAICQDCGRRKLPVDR

[4] = biological target: T2, HGFA (Homo sapiens, UniProt Q04756); test: Fluorogenic kinetic enzyme inhibitor assay, HGFA; format: biochemical
T2 sequence (Q04756 373-655): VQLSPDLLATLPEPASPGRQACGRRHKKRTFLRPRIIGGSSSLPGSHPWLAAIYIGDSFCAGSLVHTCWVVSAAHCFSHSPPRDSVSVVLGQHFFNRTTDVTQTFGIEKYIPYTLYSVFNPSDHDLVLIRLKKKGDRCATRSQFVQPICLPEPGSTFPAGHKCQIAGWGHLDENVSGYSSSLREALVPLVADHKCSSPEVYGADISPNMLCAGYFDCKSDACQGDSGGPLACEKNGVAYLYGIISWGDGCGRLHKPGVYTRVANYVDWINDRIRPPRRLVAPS

[5] = biological target: thrombin (Homo sapiens, UniProt P00734); test: Chromogenic kinetic enzyme assay, thrombin; format: biochemical
[6] = biological target: Factor Xa (Homo sapiens, UniProt P00742); test: Chromogenic kinetic enzyme assay, Factor Xa; format: biochemical
Chain of Factor Xa (P00742 235-488 limits assumed): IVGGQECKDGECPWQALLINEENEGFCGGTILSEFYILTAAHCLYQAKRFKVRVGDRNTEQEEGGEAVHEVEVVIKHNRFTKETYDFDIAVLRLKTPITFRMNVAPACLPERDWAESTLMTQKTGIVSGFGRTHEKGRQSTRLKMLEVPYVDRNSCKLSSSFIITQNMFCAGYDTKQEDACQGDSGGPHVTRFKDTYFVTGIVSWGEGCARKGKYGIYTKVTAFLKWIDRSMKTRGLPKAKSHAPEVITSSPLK
Chain of Factor Xa (P00742 41-179 partner limits assumed): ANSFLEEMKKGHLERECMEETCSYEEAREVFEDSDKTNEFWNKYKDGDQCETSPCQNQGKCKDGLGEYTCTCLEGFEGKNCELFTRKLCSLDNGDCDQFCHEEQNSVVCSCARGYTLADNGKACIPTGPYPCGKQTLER

[7] = tested on: chimeric VSV SARS-CoV-2 virus; details: chimeric VSV virus
[8] = tested on: influenza A virus strain A/California/4/2009 (pdmH1N1); details: for H1N1 titer Log fold reduction (1 μM): virus strain A/California/4/2009 (pdmH1N1, 72 h, 1 μM); for H1N1 titer Log fold reduction (10 μM): virus strain A/California/4/2009 (pdmH1N1, 72 h, 10 μM)

Chain of TMPRSS2 (O15393 109-492 S251D/R252D/Q253D/S254D/R255K limits assumed): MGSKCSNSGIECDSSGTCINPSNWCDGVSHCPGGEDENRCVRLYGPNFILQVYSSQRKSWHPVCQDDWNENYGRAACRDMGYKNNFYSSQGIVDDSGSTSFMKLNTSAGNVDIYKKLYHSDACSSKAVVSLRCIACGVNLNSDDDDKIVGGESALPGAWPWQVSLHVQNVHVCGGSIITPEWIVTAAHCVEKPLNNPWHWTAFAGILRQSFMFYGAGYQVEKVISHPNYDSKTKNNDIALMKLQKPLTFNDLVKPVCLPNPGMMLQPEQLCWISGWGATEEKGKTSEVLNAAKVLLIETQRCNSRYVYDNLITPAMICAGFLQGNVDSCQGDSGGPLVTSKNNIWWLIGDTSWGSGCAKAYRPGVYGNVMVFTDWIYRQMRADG

Row | Compound | IC50 [1] [nM] | IC50 [2] [nM] | IC50 [3] [nM] | IC50 [4] [nM] | IC50 [5] [µM] | IC50 [6] [nM] | EC50 [7] [nM] | H1N1 Fold inhibition @ 0.1 μM [8] | H1N1 Fold inhibition @ 1 μM [8] | H1N1 Fold inhibition @ 10 μM [8] | H1N1 titer Log fold reduction (1 μM) [8] | H1N1 titer Log fold reduction (10 μM) [8]
1 | CC[C@H](C)[C@H](NC(C)=O)C(=O)N[C@@H](CCC(N)=O)C(=O)N[C@@H](Cc1ccccc1)C(=O)N[C@@H](CCCNC(=N)N)C(=O)c1nc2ccccc2s1 [MM3116, Ac-IQFR-kbt] | 1.7 | 0.92 | 0.14 | 30 | > 20 | 792 | 3.6 |  |  |  |  | 
2 | CC[C@H](C)[C@H](NC(C)=O)C(=O)N[C@@H](CCC(N)=O)C(=O)N[C@@H](CO)C(=O)N[C@@H](CCCNC(=N)N)C(=O)c1nc2ccccc2s1 [MM3177, Ac-IQSR-kbt] | 4.5 | 1.3 | 2.4 | 19900 | > 20 | 1730 | 36 |  |  |  |  | 
3 | CC[C@H](C)[C@H](NC(C)=O)C(=O)N[C@@H](CCC(N)=O)C(=O)N[C@@H](C)C(=O)N[C@@H](CCCNC(=N)N)C(=O)c1nc2ccccc2s1 [MM3178, Ac-IQAR-kbt] | 0.23 | 0.1 | 1.3 | > 20000 | > 20 | 170 | 11 | 2 | 91 | 238 | 2.0 | 2.4
4 | CC[C@H](C)[C@H](NC(C)=O)C(=O)N[C@@H](CCC(N)=O)C(=O)N[C@H](C(=O)N[C@@H](CCCNC(=N)N)C(=O)c1nc2ccccc2s1)C(C)C [MM3180, Ac-IQVR-kbt] | 0.03 | 0.76 | 0.11 | 799 | > 20 |  | 12 | 2 | 135 | 359 | 2.1 | 2.6
5 | CC[C@H](C)[C@H](NC(C)=O)C(=O)N[C@@H](CCC(N)=O)C(=O)N[C@H](C(=O)N[C@H](CCCNC(=N)N)C(=O)c1nc2ccccc2s1)C(C)C [MM3180-1, Ac-IQVdR-kbt] | 2.89 | 22.9 | 1.72 | 14600 | > 20 | > 20000 |  |  |  |  |  | 
6 | CC[C@H](C)[C@H](NC(C)=O)C(=O)N[C@@H](CCC(N)=O)C(=O)N[C@H](C(=O)N[C@@H](CCCNC(=N)N)C(=O)c1nc2ccccc2s1)[C@@H](C)O [MM3186, Ac-IQTR-kbt] | 0.17 | 16 | 0.98 | 18400 | > 20 | > 20000 | 19 |  |  |  |  | 
7 | CC[C@H](C)[C@H](NC(C)=O)C(=O)N[C@@H](CCC(N)=O)C(=O)N[C@@H](Cc1c[nH]c2ccccc12)C(=O)N[C@@H](CCCNC(=N)N)C(=O)c1nc2ccccc2s1 [MM3187, Ac-IQWR-kbt] | 2.2 | 1.2 | 0.32 | 1450 | > 20 | 129 | 22 |  |  |  |  | 
8 | CC[C@H](C)[C@H](NC(C)=O)C(=O)N[C@@H](CO)C(=O)N[C@@H](Cc1ccccc1)C(=O)N[C@@H](CCCNC(=N)N)C(=O)c1nc2ccccc2s1 [MM4009, Ac-ISFR-kbt] | 0.07 | 4.7 | 0.86 | 182 | > 20 |  | 40 | 2 | 3 | 743 | 0.62 | 3.4
9 | CC[C@H](C)[C@H](NC(C)=O)C(=O)N[C@H](Cc1c[nH]c2ccccc12)C(=O)N[C@@H](Cc1ccccc1)C(=O)N[C@@H](CCCNC(=N)N)C(=O)c1nc2ccccc2s1 [MM4038, Ac-IdWFR-kbt] | 0.04 | 25 | 12 | 66 | > 20 |  | 226 |  |  |  | 2.1 | 3.0
